In series [1] the target is T1, MtKARI (Methanothermococcus thermolithotrophicus, UniProt A0A8X6EH16).
T1 construct: gene ilvC; native full-length class I enzyme purified from M. thermolithotrophicus, no tag; modelled residues 2-330 (Rossmann 2-183, knot 184-330); dodecamer 438 kDa
T1 sequence (A0A8X6EH16 1-330): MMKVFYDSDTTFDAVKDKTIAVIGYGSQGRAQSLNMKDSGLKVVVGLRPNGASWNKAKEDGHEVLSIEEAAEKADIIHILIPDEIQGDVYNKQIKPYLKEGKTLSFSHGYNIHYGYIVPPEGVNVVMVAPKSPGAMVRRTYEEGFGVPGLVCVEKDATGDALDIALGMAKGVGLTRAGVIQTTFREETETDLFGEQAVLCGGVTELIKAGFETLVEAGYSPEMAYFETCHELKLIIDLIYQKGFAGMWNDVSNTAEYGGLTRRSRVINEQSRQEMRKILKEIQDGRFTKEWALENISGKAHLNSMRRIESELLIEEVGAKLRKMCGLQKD
Nature of the series: X-ray crystallography. The note with it: open state, 2.2 A; crystal soaked with 50 mM L-tartrate, 20 mM NADP, 50 mM MgCl2; Mg2+-free, pH 6.5; substrate analogue at the nicotinamide site. The format is binding.

Series [2] concerns the molecule itself. Nature of the series: native gel or EMSA; hrCN-PAGE, 5 to 15% gradient gel, 2 ug enriched MtKARI; cathode buffer with 0.05% sodium deoxycholate and 0.01% dodecyl maltoside, pH 7.

As for `O=C(O)[C@H](O)[C@@H](O)C(=O)O` [L-tartrate], in series [1], the X-ray crystallography result is “tartrate takes the vacant position of the nicotinamide group of NADPH and is loosely bound”.

B1: Ketol-acid reductoisomerase from Methanothermococcus thermolithotrophicus (enzyme, UniProt A0A8X6EH16 1-330, looked up)
chain: MMKVFYDSDTTFDAVKDKTIAVIGYGSQGRAQSLNMKDSGLKVVVGLRPNGASWNKAKEDGHEVLSIEEAAEKADIIHILIPDEIQGDVYNKQIKPYLKEGKTLSFSHGYNIHYGYIVPPEGVNVVMVAPKSPGAMVRRTYEEGFGVPGLVCVEKDATGDALDIALGMAKGVGLTRAGVIQTTFREETETDLFGEQAVLCGGVTELIKAGFETLVEAGYSPEMAYFETCHELKLIIDLIYQKGFAGMWNDVSNTAEYGGLTRRSRVINEQSRQEMRKILKEIQDGRFTKEWALENISGKAHLNSMRRIESELLIEEVGAKLRKMCGLQKD
notes: ketol-acid reductoisomerase (EC 1.1.1.86), class I, of Methanothermococcus thermolithotrophicus DSM 2095; native enzyme; model with Rossmann domain (2-183) and knot domain (184-330); stretch 47-53 is printed as LRPNGAS; Native protein without tags, identified by MALDI-TOF-MS; The crystals held NADP and Mg2+ (close state) or NADP and tartrate (open state); also called MtKARI; KARI; source: …
For B1, the “stoichiometry N” value in series [2] was 12.

Broadly, the stoichiometry N is the number of molecules, sites or subunits per partner or assembly.
